# Experiments:
# [1] = Example 1: ocular tissue pharmacokinetics after topical dose, increasing dose volume at constant drug concentration; type: in vivo, pigmented male rabbits (Dutch Belted); details: for AUC(0-t) / DNAUC / Cmax / Tmax: topical ocular; for Cmax / Tmax: male, Dutch Belted, rabbit, topical or ocular
# Description: An aqueous suspension comprising 0.1 mg/mL of the compound having Formula III (BOL-303242-X), 100 mg/mL PEG 3350, and 10 mg/mL Tween® 80 was prepared substantially as disclosed above.
# This study was carried out using a non-crossover design and a total of 84 naive pigmented male rabbits (Dutch Belted). Each rabbit was arbitrarily assigned to one of three dose groups.
# On the day of dosing, each animal received a topical ocular dose of the suspension. Animals in Group 1 received a […] instillation, Group 2 received a 30-μL instillation and Group 3 received a 100-μL instillation. The target dose levels for these groups were 1, 3 and 10 μg/eye, respectively. The test composition was shipped to the test site as a ready-to-use suspension.
# At predetermined time intervals after dosing, rabbits (four per collection time) were euthanized and the eyes enucleated and dissected. Samples of tear, conjunctiva, cornea, aqueous humor and iris/ciliary body were obtained from each animal and frozen until being shipped on dry ice to the analytical laboratory. Samples were collected at 0.0833, 0.25, 0.5, 1, 2, 4 and 6 hour after dosing. Concentrations of BOL-303242-X in ocular tissue samples were determined by LC/MS/MS. One or more samples of each tissue had concentrations that were below the lower limit of quantitation (“LLQ”). These samples were assigned a value of 0.5 times the LLQ for the purpose of calculating a mean concentration for pharmacokinetic (“PK”) analysis. In addition, the BOL-303242-X concentration measured in one tear sample collected at 6 hour was more than 100-fold higher than any other 6-hour sample for the same dose group. This value was considered to be an outlier, and was not included in any calculations.
# Non-compartmental methods were used for pharmacokinetic analysis of concentration versus time data (WinNonlin version 5.2). Due to the destructive sampling regimen employed in this study average composite data were used in the PK analysis.
# [2] = Solubility in water of compound having Formula III; type: physicochemical; details: pH 7, water, pH of about 7
# [3] = Conjunctiva, 10 μL of 0.1 mg/mL suspension (1 μg)
# [4] = Conjunctiva, 30 μL of 0.1 mg/mL suspension (3 μg)
# [5] = Conjunctiva, 100 μL of 0.1 mg/mL suspension (10 μg)
# [6] = Cornea, 10 μL of 0.1 mg/mL suspension (1 μg)
# [7] = Cornea, 30 μL of 0.1 mg/mL suspension (3 μg)
# [8] = Cornea, 100 μL of 0.1 mg/mL suspension (10 μg)
# [9] = Iris/Ciliary Body, 10 μL of 0.1 mg/mL suspension (1 μg)
# [10] = Iris/Ciliary Body, 30 μL of 0.1 mg/mL suspension (3 μg)
# [11] = Iris/Ciliary Body, 100 μL of 0.1 mg/mL suspension (10 μg)
# [12] = Tear, 10 μL of 0.1 mg/mL suspension (1 μg)
# [13] = Tear, 30 μL of 0.1 mg/mL suspension (3 μg)
# [14] = Tear, 100 μL of 0.1 mg/mL suspension (10 μg)
# [15] = 1 ug, Conjunctiva, 10 μL of 0.1 mg/mL suspension (1 μg)
# [16] = 1 ug, Cornea, 10 μL of 0.1 mg/mL suspension (1 μg)
# [17] = 1 ug, Iris/Ciliary Body, 10 μL of 0.1 mg/mL suspension (1 μg)
# [18] = 1 ug, Tear, 10 μL of 0.1 mg/mL suspension (1 μg)
# [19] = 3 ug, Conjunctiva, 30 μL of 0.1 mg/mL suspension (3 μg)
# [20] = 3 ug, Cornea, 30 μL of 0.1 mg/mL suspension (3 μg)
# [21] = 3 ug, Iris/Ciliary Body, 30 μL of 0.1 mg/mL suspension (3 μg)
# [22] = 3 ug, Tear, 30 μL of 0.1 mg/mL suspension (3 μg)
# [23] = 10 ug, Conjunctiva, 100 μL of 0.1 mg/mL suspension (10 μg)
# [24] = 10 ug, Cornea, 100 μL of 0.1 mg/mL suspension (10 μg)
# [25] = 10 ug, Iris/Ciliary Body, 100 μL of 0.1 mg/mL suspension (10 μg)
# [26] = 10 ug, Tear, 100 μL of 0.1 mg/mL suspension (10 μg)
structure (smiles),measurement,setting,value
Cc1ccc2c(NCC(O)(CC(C)(C)c3cc(F)cc4c3OCC4)C(F)(F)F)cccc2n1 (centres unmarked) [BOL-303242-X],AUC(0-t),[1]; [3],245 ng·h/g
same,DNAUC,[1]; [3],245 ng*hr/g ÷ μg dose
same,AUC(0-t),[1]; [4],487 ng·h/g
same,DNAUC,[1]; [4],162 ng*hr/g ÷ μg dose
same,AUC(0-t),[1]; [5],741 ng·h/g
same,DNAUC,[1]; [5],74.1 ng*hr/g ÷ μg dose
same,AUC(0-t),[1]; [6],270 ng·h/g
same,DNAUC,[1]; [6],270 ng*hr/g ÷ μg dose
same,AUC(0-t),[1]; [7],634 ng·h/g
same,DNAUC,[1]; [7],211 ng*hr/g ÷ μg dose
same,AUC(0-t),[1]; [8],955 ng·h/g
same,DNAUC,[1]; [8],95.5 ng*hr/g ÷ μg dose
same,AUC(0-t),[1]; [9],32.0 ng·h/g
same,DNAUC,[1]; [9],32.0 ng*hr/g ÷ μg dose
same,AUC(0-t),[1]; [10],33.8 ng·h/g
same,DNAUC,[1]; [10],11.3 ng*hr/g ÷ μg dose
same,AUC(0-t),[1]; [11],30.5 ng·h/g
same,DNAUC,[1]; [11],3.05 ng*hr/g ÷ μg dose
same,AUC(0-t),[1]; [12],8870 ng·h/g
same,DNAUC,[1]; [12],8870 ng*hr/g ÷ μg dose
same,AUC(0-t),[1]; [13],12600 ng·h/g
same,DNAUC,[1]; [13],4200 ng*hr/g ÷ μg dose
same,AUC(0-t),[1]; [14],25600 ng·h/g
same,DNAUC,[1]; [14],2560 ng*hr/g ÷ μg dose
same,Cmax,"[1]; 1 ug, Aqueous Humor, 10 μL of 0.1 mg/mL suspension (1 μg)",< 1 ng/mL
same,Cmax,[1]; [15],292 ± 137 ng/g
same,Tmax,[1]; [15],4.98 min
same,Cmax,[1]; [16],288 ± 116 ng/g
same,Tmax,[1]; [16],15 min
same,Cmax,[1]; [17],19.6 ± 29.8 ng/g
same,Tmax,[1]; [17],60 min
same,Cmax,[1]; [18],16300 ± 7000 ng/g
same,Tmax,[1]; [18],4.98 min
same,Cmax,"[1]; 3 ug, Aqueous Humor, 30 μL of 0.1 mg/mL suspension (3 μg)",< 1 ng/mL
same,Cmax,[1]; [19],684 ± 446 ng/g
same,Tmax,[1]; [19],4.98 min
same,Cmax,[1]; [20],716 ± 234 ng/g
same,Tmax,[1]; [20],4.98 min
same,Cmax,[1]; [21],13.1 ± 19 ng/g
same,Tmax,[1]; [21],120 min
same,Cmax,[1]; [22],28100 ± 11300 ng/g
same,Tmax,[1]; [22],15 min
same,Cmax,"[1]; 10 ug, Aqueous Humor, 100 μL of 0.1 mg/mL suspension (10 μg)",< 1 ng/mL
same,Cmax,[1]; [23],1050 ± 531 ng/g
same,Tmax,[1]; [23],4.98 min
same,Cmax,[1]; [24],955 ± 619 ng/g
same,Tmax,[1]; [24],4.98 min
same,Cmax,[1]; [25],11.3 ± 8.05 ng/g
same,Tmax,[1]; [25],60 min
same,Cmax,[1]; [26],36700 ± 21400 ng/g
same,Tmax,[1]; [26],15 min
same,increase in exposure with increasing instillation volume,"[1]; tear, cornea and conjunctiva, 10, 30, 100 μL of 0.1 mg/mL",less than proportional to the administered dose/volume
same,solubility,[2],~0.2 µg/mL
